Laboratory results published in ChEMBL document CHEMBL4196111, “ROR(GMMA)T Modulating Activity for the Treatment of Cancers” (ACS Med Chem Lett, 2018).

Molecular target: T1, Nuclear receptor ROR-gamma (Mus musculus) (UniProt P51450)
T1 sequence (whole entry): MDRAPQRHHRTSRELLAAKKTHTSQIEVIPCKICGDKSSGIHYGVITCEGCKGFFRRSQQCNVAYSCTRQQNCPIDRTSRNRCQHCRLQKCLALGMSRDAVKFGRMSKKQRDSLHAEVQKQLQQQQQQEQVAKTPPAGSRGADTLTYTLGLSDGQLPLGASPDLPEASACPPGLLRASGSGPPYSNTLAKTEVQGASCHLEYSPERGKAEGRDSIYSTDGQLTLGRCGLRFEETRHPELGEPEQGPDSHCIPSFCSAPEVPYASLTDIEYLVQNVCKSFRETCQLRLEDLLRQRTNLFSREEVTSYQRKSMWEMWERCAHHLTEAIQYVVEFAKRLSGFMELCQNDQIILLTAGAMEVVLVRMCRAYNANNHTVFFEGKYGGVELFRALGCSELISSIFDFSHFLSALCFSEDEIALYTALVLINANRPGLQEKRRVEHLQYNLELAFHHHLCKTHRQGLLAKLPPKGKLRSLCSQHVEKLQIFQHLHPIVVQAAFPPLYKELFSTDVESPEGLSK
Experiment: Modulation of RORgammat in mouse Th17 cells assessed as […] IL17A production at 3 uM relative to control
Format: cell-based

Row | Structure (SMILES) | Activity [%]
1 | CS(=O)(=O)c1ccc(CNC(=O)c2ccc3c(n2)OCCN3c2cc(C3CC3)nc(C3CC3)c2)c(F)c1 | 324
2 | CCOC(=O)c1cc(S(=O)(=O)CC)ccc1CNC(=O)c1ccc2c(n1)CCCN2c1cc(C2CC2)nc(C2CC2)c1 | 572
3 | CS(=O)(=O)c1ccc(CNC(=O)c2ccc3c(n2)OCCN3c2cc(C3CC3)nc(C3CC3)c2)cc1 | 373
4 | CS(=O)(=O)c1ccc(C(CO)NC(=O)c2ccc3c(n2)CCCN3c2cc(C3CC3)nc(C3CC3)c2)cc1 (stereo not drawn) | 533
5 | CS(=O)(=O)c1ccc(CNC(=O)c2ccc3c(n2)CCCN3c2cc(C3CC3)nc(C3CC3)c2)c(C(N)=O)c1 | 483
6 | CS(=O)(=O)c1ccc(CNC(=O)c2ccc3c(n2)CCCN3c2cc(C3CC3)nc(C3CC3)c2)nc1 | 452
7 | CS(=O)(=O)c1ccc(CNC(=O)c2ccc3c(c2)OCCC3c2cc(C3CC3)nc(C3CC3)c2)nc1 (stereo not drawn) | 443
8 | CCS(=O)(=O)c1ccc(CNC(=O)c2ccc3c(n2)CCCN3c2cc(C3CC3)nc(C3CC3)c2)nc1 | 533
